Test results from patent publication US10723699B2 (Hyundai Pharm Co., Ltd., priority 2015, dated 2020).
Where two headings read alike, the source gives them in different places.

Target: T1, G protein-coupled receptor 119 (GPR-119) (Mesocricetus auratus, UniProt A0A1U8CD06)
T1 construct: hamster-derived β-cells containing G protein-coupled receptor 119 (GPR-119), HIT-T15 cells; host or cells: HIT-T15 (hamster pancreatic β-cells)
T1 sequence (A0A1U8CD06 1-334): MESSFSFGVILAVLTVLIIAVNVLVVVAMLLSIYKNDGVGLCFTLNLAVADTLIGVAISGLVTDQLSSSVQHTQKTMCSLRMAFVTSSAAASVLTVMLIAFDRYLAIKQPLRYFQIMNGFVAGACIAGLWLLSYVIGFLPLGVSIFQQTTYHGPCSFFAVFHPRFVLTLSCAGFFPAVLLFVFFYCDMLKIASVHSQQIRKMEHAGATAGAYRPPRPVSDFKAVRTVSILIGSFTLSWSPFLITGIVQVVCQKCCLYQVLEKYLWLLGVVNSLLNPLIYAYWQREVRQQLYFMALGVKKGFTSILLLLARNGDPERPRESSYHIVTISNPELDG
Assay: cAMP activity in HIT-T15 cells (cAMP dynamic kit, FRET)
Type: cell-based, hamster
Experimental: To check whether the cyclohexene derivatives according to the present invention activate cyclic adenosine monophosphate (cAMP), experiments were carried out, as follows.
The HIT-T15 cells were plated on a 96-well plate at 60,000 cells per well. On the next day of plating, the cells were treated with a varying concentration of each of the example compounds according to the present invention, and incubated at 37° C. for an hour. In this case, each of the treated compounds was used at six concentrations, ranging from 0.0032 to 10 μM, to treat the cells.
The cyclic adenosine monophosphate (cAMP) activity was measured according to the manufacturer's instruction using a cAMP dynamic kit commercially available from Cis Bio Inc. (Bedford, Mass.). The cells were lysed, and a level of cAMP was determined by a competitive immunoassay using D2-labeled cAMP and a cryptate-labeled anti-cAMP antibody. Fluorescence was read in Flex Station (Molecular Devices). […] Unlabeled cAMP in the cell lysate competed with the D2-labeled cAMP against the cryptate-labeled antibody. Since a decrease in the measured intensity of the FRET signals represents a level of cAMP in the cells, the cAMP activities of the compounds are calculated as a change in FRET signals by adjusting an amount of dimethyl sulfoxide (DMSO).

[1] = EC50 (nM), 1 hour at 37° C., six concentrations 0.0032 to 10 μM
[2] = 1 hour at 37° C., six concentrations 0.0032 to 10 μM, read-out: EC50

Row | SMILES | EC50 [1] [nM] | EC50 (EC50 value, Table 2) [nM] | EC50 [2] [nM] | EC50 (Table 2, read-out: EC50 value) [nM]
1 | CCc1cnc(N2CCC(COc3ccc(C4=CCC(C(=O)N5CCC6(CC5)OCCO6)CC4)cc3F)CC2)nc1 (stereo not drawn) [Example 306, (4-(4-((1-(5-ethylpyrimidin-2-yl)piperidin-4-yl)methoxy)-3-fluorophenyl)cyclohex-3-enyl)(1,4-dioxa-8-azaspiro[4.5]decan-8-yl)methanone] | 8.9 | ≤ 50 |  | 
2 | O=C(NCCO)C1CC=C(c2ccc(OCC3CCN(c4ccccn4)CC3)cc2)CC1 (stereo not drawn) [Example 358, N-(2-hydroxyethyl)-4-(4-((1-(pyridin-2-yl)piperidin-4-yl)methoxy)phenyl)cyclohex-3-enecarboxamide] |  |  | 190 | 
3 | CCc1cnc(N2CCC(COc3ccc(C4=CCC(C(=O)N5CC(=O)C5)CC4)cc3F)CC2)nc1 (stereo not drawn) [Example 295, 1-(4-(4-((1-(5-ethylpyrimidin-2-yl)piperidin-4-yl)methoxy)-3-fluorophenyl)cyclohex-3-enecarbonyl)azetidin-3-one] |  |  | 43 | ≤ 50
4 | CCc1cnc(N2CCC(COc3ccc(C4=CCC(C(=O)N5CCC(F)(F)C5)CC4)c(F)c3)CC2)nc1 (stereo not drawn) [Example 454, (3,3-difluoropyrrolidin-1-yl)(4-(4-((1-(5-ethylpyrimidin-2-yl)piperidin-4-yl)methoxy)-2-fluorophenyl)cyclohex-3-enyl)methanone] |  |  | 15 | ≤ 50
5 | CC(C)(C)OC(=O)N1CCC(COc2ccc(C3=CCC(C(=O)N4CCN(CC5CC5)CC4)CC3)cc2)CC1 (stereo not drawn) [Example 256, tert-butyl 4-((4-(4-(4-(cyclopropylmethyl)piperazine-1-carbonyl)cyclohex-1-enyl)phenoxy)methyl)piperidine-1-carboxylate] |  |  |  | ≤ 50
6 | CCc1cnc(N2CCC(COc3ccc(C4=CCC(C(=O)N5CC(F)(F)C(F)(F)C5)CC4)cc3F)CC2)nc1 (stereo not drawn) [Example 460, (4-(4-((1-(5-ethylpyrimidin-2-yl)piperidin-4-yl)methoxy)-3-fluorophenyl)cyclohex-3-enyl)(3,3,4,4-tetrafluoropyrrolidin-1-yl)methanone] |  |  | 12 | ≤ 50
7 | CC(C)c1noc(N2CCC(COc3ccc(C4=CCC(C(=O)N5CCOCC5)CC4)c(F)c3)CC2)n1 (stereo not drawn) [Example 448, (4-(2-fluoro-4-((1-(3-isopropyl-1,2,4-oxadiazol-5-yl)piperidin-4-yl)methoxy)phenyl)cyclohex-3-enyl)(morpholino)methanone] |  |  | 25 | ≤ 50
8 | CCc1cnc(N2CCC(COc3ccc(C4=CCC(C(=O)N5CCC(O)CC5)CC4)c(F)c3)CC2)nc1 (stereo not drawn) [Example 431, (4-(4-((1-(5-ethylpyrimidin-2-yl)piperidin-4-yl)methoxy)-2-fluorophenyl)cyclohex-3-enyl)(4-hydroxypiperidin-1-yl)methanone] |  |  | 27 | ≤ 50
9 | CCc1cnc(N2CCC(COc3ccc(C4=CCC(C(=O)N5CCC(F)(F)CC5)CC4)cc3F)CC2)nc1 (stereo not drawn) [Example 457, (4,4-difluoropiperidin-1-yl)(4-(4-((1-(5-ethylpyrimidin-2-yl)piperidin-4-yl)methoxy)-3-fluorophenyl)cyclohex-3-enyl)methanone] |  |  | 9.8 | ≤ 50
10 | CCc1cnc(N2CCC(COc3ccc(C4=CCC(C(=O)N5CCCC5)CC4)cc3C)CC2)nc1 (stereo not drawn) [Example 416, (4-(4-((1-(5-ethylpyrimidin-2-yl)piperidin-4-yl)methoxy)-3-methylphenyl)cyclohex-3-enyl)(pyrrolidin-1-yl)methanone] |  |  | 75 | 
11 | CCc1cnc(N2CCC(COc3ccc(C4=CCC(C(=O)N5CCC(=O)CC5)CC4)cc3F)CC2)nc1 (stereo not drawn) [Example 308, 1-(4-(4-((1-(5-ethylpyrimidin-2-yl)piperidin-4-yl)methoxy)-3-fluorophenyl)cyclohex-3-enecarbonyl)piperidin-4-one] | 23 | ≤ 50 |  | 
12 | CC(C)c1noc(N2CCC(COc3ccc(C4=CCC(C(=O)NC5CCC5)CC4)cc3F)CC2)n1 (stereo not drawn) [Example 364, N-cyclobutyl-4-(3-fluoro-4-((1-(3-isopropyl-1,2,4-oxadiazol-5-yl)piperidin-4-yl)methoxy)phenyl)cyclohex-3-enecarboxamide] |  |  | 85 | 
13 | CCc1cnc(N2CCC(COc3ccc(C4=CCC(C(=O)NCCO)CC4)cc3F)CC2)nc1 (single isomer, unassigned; (-)) [Example 441, (−)-4-(4-((1-(5-ethylpyrimidin-2-yl)piperidin-4-yl)methoxy)-3-fluorophenyl)-N-(2-hydroxyethyl)cyclohex-3-enecarboxamide] |  |  | 33 | ≤ 50
14 | CC(C)c1noc(N2CCC(COc3ccc(C4=CCC(C(=O)N5CC[C@H](F)C5)CC4)cc3F)CC2)n1 (stereo partly drawn) [Example 95, (4-(3-fluoro-4-((1-(3-isopropyl-1,2,4-oxadiazol-5-yl)piperidin-4-yl)methoxy)phenyl)cyclohex-3-enyl)((S)-3-fluoropyrrolidin-1-yl)methanone] |  |  |  | ≤ 50
15 | CCc1cnc(N2CCC(COc3ccc(C4=CCC(C(=O)N5CCC[C@H]5CO)CC4)cc3)CC2)nc1 (single isomer, unassigned; (+)) [Example 466] |  |  | 12 | ≤ 50
16 | CC(C)c1noc(N2CCC(COc3ccc(C4=CCC(C(=O)N5CCN(C6CC6)CC5)CC4)cc3)CC2)n1 (stereo not drawn) [Example 397, (4-cyclopropylpiperazin-1-yl)(4-(4-((1-(3-isopropyl-1,2,4-oxadiazol-5-yl)piperidin-4-yl)methoxy)phenyl)cyclohex-3-enyl)methanone] |  |  | 9.9 | 
17 | CCc1cnc(N2CCC(COc3ccc(C4=CCC(C(=O)NCC(C)(C)CO)CC4)cc3)CC2)nc1 (stereo not drawn) [Example 177, 4-(4-((1-(5-ethylpyrimidin-2-yl)piperidin-4-yl)methoxy)phenyl)-N-(3-hydroxy-2,2-dimethylpropyl)cyclohex-3-enecarboxamide] |  |  |  | ≤ 50
18 | CCc1cnc(N2CCC(COc3ccc(C4=CCC(C(=O)N5CCOCC5)CC4)cc3C(F)(F)F)CC2)nc1 (stereo not drawn) [Example 400, (4-(4-((1-(5-ethylpyrimidin-2-yl)piperidin-4-yl)methoxy)-3-(trifluoromethyl)phenyl)cyclohex-3-enyl)(morpholino)methanone] |  |  | 140 | 
19 | CC(C)c1noc(N2CCC(COc3ccc(C4=CCC(C(=O)N5CCN(C)CC5)CC4)cc3F)CC2)n1 (stereo not drawn) [Example 382, (4-(3-fluoro-4-((1-(3-isopropyl-1,2,4-oxadiazol-5-yl)piperidin-4-yl)methoxy)phenyl)cyclohex-3-enyl)(4-methylpiperazin-1-yl)methanone] |  |  | 42 | ≤ 50
20 | CCc1cnc(N2CCC(COc3ccc(C4=CCC(C(=O)N5CCC5)CC4)cc3F)CC2)nc1 (stereo not drawn) [Example 301, azetidin-1-yl(4-(4-((1-(5-ethylpyrimidin-2-yl)piperidin-4-yl)methoxy)-3-fluorophenyl)cyclohex-3-enyl)methanone] |  |  | 19 | ≤ 50
21 | CCc1cnc(N2CCC(COc3ccc(C4=CCC(C(=O)N5CCOCC5)CC4)c(F)c3)CC2)nc1 (stereo not drawn) [Example 422, (4-(4-((1-(5-ethylpyrimidin-2-yl)piperidin-4-yl)methoxy)-2-fluorophenyl)cyclohex-3-enyl)(morpholino)methanone] |  |  | 18 | ≤ 50
22 | CCc1cnc(N2CCC(COc3ccc(C4=CCC(C(=O)N5CCC(C#N)CC5)CC4)cc3C(F)(F)F)CC2)nc1 (stereo not drawn) [Example 398, 1-(4-(4-((1-(5-ethylpyrimidin-2-yl)piperidin-4-yl)methoxy)-3-(trifluoromethyl)phenyl)cyclohex-3-enecarbonyl)piperidine-4-carbonitrile] |  |  | 110 | 
23 | CCc1cnc(N2CCC(COc3ccc(C4=CCC(C(=O)N5CCC(F)(F)C5)CC4)c(F)c3)CC2)nc1 (single isomer, unassigned; (+)) [Example 462, (+)-(3,3-difluoropyrrolidin-1-yl)(4-(4-((1-(5-ethylpyrimidin-2-yl)piperidin-4-yl)methoxy)-2-fluorophenyl)cyclohex-3-enyl)methanone] |  |  | 14 | ≤ 50
24 | CC(C)c1noc(N2CCC(COc3ccc(C4=CCC(C(=O)N5CCC(N6CCCC6)CC5)CC4)cc3F)CC2)n1 (stereo not drawn) [Example 336, (4-(3-fluoro-4-((1-(3-isopropyl-1,2,4-oxadiazol-5-yl)piperidin-4-yl)methoxy)phenyl)cyclohex-3-enyl)(4-(pyrrolidin-1-yl)piperidin-1-yl)methanone] |  |  | 180 | 
25 | CCc1cnc(N2CCC(COc3ccc(C4=CCC(C(=O)NCCF)CC4)cc3F)CC2)nc1 (stereo not drawn) [Example 322, 4-(4-((1-(5-ethylpyrimidin-2-yl)piperidin-4-yl)methoxy)-3-fluorophenyl)-N-(2-fluoroethyl)cyclohex-3-enecarboxamide] |  |  | 62 | 
